Assay results taken from ChEMBL document CHEMBL4387726, “Design and synthesis of novel tellurodibenzoic acid compounds as kidney-type glutaminase (KGA) inhibitors” (Bioorg Med Chem Lett, 2019).

What was measured:
[1] = Inhibition of human KGA assessed as reduction in glutamate formation using glutamine as substrate pretreated with 0.5 hr followed by substrate addition and measured after 4 hrs by KGA/GDH coupled assay
HCT-116 = assay: Antiproliferative activity against human HCT116 cells assessed as reduction in cell viability after 5 days by EZMTT assay; format: functional, cell-based; details: HCT-116, 120 h
[2] = Inhibition of Escherichia coli TrxR pre treated with 0.5 hr followed by DTNB addition and measured after 1 hr
[3] = Inhibition of Escherichia coli GDH using glutamate as substrate pre treated with 1 hr followed by substrate addition and measured after 1 hr
[4] = Stability of the compound in basic (NH3.H2O) solution at 37 degC for 24 hrs by HPLC analysis; format: physicochemical
[5] = Stability of the compound in nucleophilic (lysine) solution at 37 degC for 24 hrs by HPLC analysis; format: physicochemical
[6] = Stability of the compound in nucleophilic (beta-ME) solution at 37 degC for 24 hrs by HPLC analysis; format: physicochemical
[7] = Stability of the compound in nucleophilic (DTT) solution at 37 degC for 24 hrs by HPLC analysis; format: physicochemical
[8] = Stability of the compound in oxidative (H2O2) solution at 37 degC for 24 hrs by HPLC analysis; format: physicochemical
[9] = Stability of the compound in acidic (HCOOH) solution at 37 degC for 24 hrs by HPLC analysis; format: physicochemical

Work on `O=C(O)c1ccccc1[Te]c1ccccc1C(=O)O` yielded an IC50 [1] of 7 µM, an EC50 (HCT-116) of 17.8 µM and an IC50 [2] greater than 66.7 µM. It also gave an IC50 [3] greater than 66.7 µM.

Compound `CNC(=O)c1cc(Br)ccc1[Te]c1ccc(Br)cc1C(=O)NC` has an IC50 [1] greater than 66.7 µM, an EC50 (HCT-116) greater than 50 µM and an IC50 [2] greater than 66.7 µM. It also gave an IC50 [3] greater than 66.7 µM.

Compound `COc1cccc(C(=O)O)c1[Te]c1c(OC)cccc1C(=O)O` has an IC50 [1] greater than 66.7 µM, an EC50 (HCT-116) greater than 50 µM and an IC50 [2] greater than 66.7 µM. It also gave an IC50 [3] greater than 66.7 µM.

`COc1ccc(C(=O)O)c([Te]c2cc(OC)ccc2C(=O)O)c1` showed an IC50 [1] of 11.3 µM, an EC50 (HCT-116) of 7.5 µM and an IC50 [2] greater than 66.7 µM. The IC50 [3] was greater than 66.7 µM.

With `O=C(O)c1cc(Br)ccc1[Te]c1ccc(Br)cc1C(=O)O` the Stability [4] was “Stable”, the IC50 [1] was 2.4 µM and the EC50 (HCT-116) was 5 µM. The Stability [5] was “Unstable”, the IC50 [2] was greater than 66.7 µM and the Stability [6] was “Unstable”. For the same compound, the IC50 [3] was greater than 66.7 µM, the Stability [7] was “Unstable” and the Stability [8] was “Stable”. For the same compound, the Stability [9] was “Stable”.

In the case of `COC(=O)c1cc(Br)ccc1[Te]c1ccc(Br)cc1C(=O)OC`, the IC50 [1] is reported as greater than 66.7 µM, the EC50 (HCT-116) is reported as greater than 50 µM and the IC50 [2] is reported as greater than 66.7 µM. It also gave an IC50 [3] greater than 66.7 µM.

Compound `O=C(Nc1ccccc1)c1cc(Br)ccc1[Te]c1ccc(Br)cc1C(=O)Nc1ccccc1` has an IC50 [1] greater than 66.7 µM, an EC50 (HCT-116) greater than 50 µM and an IC50 [2] greater than 66.7 µM. For the same compound, the IC50 [3] was greater than 66.7 µM.

Work on `CCNC(=O)c1cc(Br)ccc1[Te]c1ccc(Br)cc1C(=O)NCC` yielded an IC50 [1] of 62.8 µM, an EC50 (HCT-116) greater than 50 µM and an IC50 [2] greater than 66.7 µM. The IC50 [3] was greater than 66.7 µM.

In the case of `O=C(O)c1cc(O)ccc1[Te]c1ccc(O)cc1C(=O)O`, the IC50 [1] is reported as 6.3 µM, the EC50 (HCT-116) is reported as 18 µM and the IC50 [2] is reported as greater than 66.7 µM. It also gave an IC50 [3] greater than 66.7 µM.

`Cc1ccc([Te]c2ccc(C)cc2C(=O)O)c(C(=O)O)c1` showed an IC50 [1] of 10.2 µM, an EC50 (HCT-116) of 16.9 µM and an IC50 [2] greater than 66.7 µM. For the same compound, the IC50 [3] was greater than 66.7 µM.

For `O=C(OCc1ccccc1)c1cc(Br)ccc1[Te]c1ccc(Br)cc1C(=O)OCc1ccccc1`, the IC50 [1] was greater than 66.7 µM, the EC50 (HCT-116) was greater than 50 µM and the IC50 [2] was greater than 66.7 µM. The IC50 [3] was greater than 66.7 µM.

In the case of `CCOC(=O)c1cc(Br)ccc1[Te]c1ccc(Br)cc1C(=O)OCC`, the IC50 [1] is reported as greater than 66.7 µM, the EC50 (HCT-116) is reported as greater than 50 µM and the IC50 [2] is reported as greater than 66.7 µM. It also gave an IC50 [3] greater than 66.7 µM.

With `COc1ccc([Te]c2ccc(OC)cc2C(=O)O)c(C(=O)O)c1` the IC50 [1] was 7.8 µM, the EC50 (HCT-116) was 10.2 µM and the IC50 [2] was greater than 66.7 µM. The IC50 [3] was greater than 66.7 µM.

In the case of `O=C(O)c1cc(I)ccc1[Te]c1ccc(I)cc1C(=O)O`, the IC50 [1] is reported as 7.4 µM, the EC50 (HCT-116) is reported as 25.6 µM and the IC50 [2] is reported as greater than 66.7 µM. It also gave an IC50 [3] greater than 66.7 µM.
